The source of these data is US20100092402A1, “TREATMENT OF RESPIRATORY DISEASE” (Mucokinetica Ltd., priority 2007, published 2010).

The assay has as its target T1, epithelial amiloride-sensitive sodium channel (ENaC) (Homo sapiens, UniProt P37088+P51168+P51170).
T1 sequence (P37088 1-669): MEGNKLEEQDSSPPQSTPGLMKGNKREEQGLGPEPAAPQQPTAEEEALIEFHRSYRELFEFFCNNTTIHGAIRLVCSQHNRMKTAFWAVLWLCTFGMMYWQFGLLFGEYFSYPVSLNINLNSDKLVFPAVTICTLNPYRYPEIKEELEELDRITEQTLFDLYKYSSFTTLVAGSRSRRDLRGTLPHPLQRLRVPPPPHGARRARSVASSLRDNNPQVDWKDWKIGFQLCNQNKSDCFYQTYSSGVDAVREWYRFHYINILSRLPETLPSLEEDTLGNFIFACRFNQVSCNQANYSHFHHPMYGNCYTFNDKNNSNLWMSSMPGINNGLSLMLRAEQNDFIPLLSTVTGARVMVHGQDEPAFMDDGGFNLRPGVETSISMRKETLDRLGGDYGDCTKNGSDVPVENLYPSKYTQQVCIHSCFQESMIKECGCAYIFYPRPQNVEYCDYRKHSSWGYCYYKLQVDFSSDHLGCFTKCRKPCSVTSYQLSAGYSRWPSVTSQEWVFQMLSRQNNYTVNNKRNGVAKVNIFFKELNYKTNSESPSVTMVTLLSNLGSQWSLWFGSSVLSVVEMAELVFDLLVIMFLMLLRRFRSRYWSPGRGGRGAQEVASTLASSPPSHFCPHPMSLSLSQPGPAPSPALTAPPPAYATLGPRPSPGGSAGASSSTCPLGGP
T1 sequence (P51168 1-640): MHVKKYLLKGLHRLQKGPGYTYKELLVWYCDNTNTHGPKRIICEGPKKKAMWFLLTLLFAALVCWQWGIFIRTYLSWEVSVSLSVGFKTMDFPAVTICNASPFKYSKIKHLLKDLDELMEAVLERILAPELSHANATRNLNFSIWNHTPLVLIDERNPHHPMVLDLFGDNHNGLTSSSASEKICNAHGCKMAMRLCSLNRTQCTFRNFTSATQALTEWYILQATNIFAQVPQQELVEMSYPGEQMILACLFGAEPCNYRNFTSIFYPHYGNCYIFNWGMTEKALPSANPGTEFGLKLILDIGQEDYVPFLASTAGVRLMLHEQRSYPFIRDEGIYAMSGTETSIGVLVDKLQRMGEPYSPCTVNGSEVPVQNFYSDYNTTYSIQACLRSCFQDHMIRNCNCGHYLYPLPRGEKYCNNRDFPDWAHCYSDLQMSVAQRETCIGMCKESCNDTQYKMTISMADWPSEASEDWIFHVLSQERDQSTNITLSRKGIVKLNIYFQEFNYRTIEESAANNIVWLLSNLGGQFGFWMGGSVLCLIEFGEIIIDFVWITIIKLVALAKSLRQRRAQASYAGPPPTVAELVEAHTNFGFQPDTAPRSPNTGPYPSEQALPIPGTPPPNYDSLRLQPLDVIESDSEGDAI
T1 sequence (P51170 1-649): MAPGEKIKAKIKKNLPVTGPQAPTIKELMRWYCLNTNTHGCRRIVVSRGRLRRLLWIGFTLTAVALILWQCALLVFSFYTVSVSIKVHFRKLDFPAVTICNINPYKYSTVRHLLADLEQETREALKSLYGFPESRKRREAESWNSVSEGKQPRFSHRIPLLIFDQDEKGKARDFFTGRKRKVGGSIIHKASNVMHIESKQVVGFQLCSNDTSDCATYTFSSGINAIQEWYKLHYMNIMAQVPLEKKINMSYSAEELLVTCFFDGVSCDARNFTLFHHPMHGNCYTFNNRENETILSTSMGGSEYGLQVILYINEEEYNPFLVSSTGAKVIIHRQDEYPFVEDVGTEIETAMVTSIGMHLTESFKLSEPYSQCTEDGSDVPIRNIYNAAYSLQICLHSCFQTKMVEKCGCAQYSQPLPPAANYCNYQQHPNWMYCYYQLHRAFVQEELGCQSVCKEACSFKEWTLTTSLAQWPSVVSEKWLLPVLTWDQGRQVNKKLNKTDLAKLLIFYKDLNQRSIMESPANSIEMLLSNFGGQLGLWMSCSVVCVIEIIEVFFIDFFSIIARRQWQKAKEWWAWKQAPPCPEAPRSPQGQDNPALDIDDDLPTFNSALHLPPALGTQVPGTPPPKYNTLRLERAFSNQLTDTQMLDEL
In kind it is cell-based. To be noted: for average baseline Isc slope in initial recording period: control slope +0.04. As for the experimental part: Human bronchial epithelial (HBE) cells were purchased from Cambrex Bioscience Ltd, UK., and were stored frozen in liquid nitrogen until required for use.
HBE cells were amplified by growing in secondary culture according to the suppliers' instructions. Cells were seeded at densities of between 3,000 to 4,000/cm^2 in plastic T-25 culture flasks in bronchial epithelial cell growth medium (BEGM) prepared from bronchial epithelial basal medium (BEBM, Cambrex, UK) supplemented with bovine pituitary extract, hydrocortisone, human epidermal growth factor, epinephrine, transferrin, insulin, retinoic acid, triiodothyronine, gentamicin, and amphotericin B. Cultures were maintained at 37° C. in 5% CO2 in a humidified incubator. Medium was changed every 1 to 3 days until cells were approximately 90% confluent. Cells were then passaged with trypsin EDTA according to the suppliers' instructions, and either used for further cell cultures, or cryopreserved in liquid nitrogen in BEGM containing 10% foetal bovine serum and 10% DMSO.
HBE cells were prepared for electrophysiology studies by growing as tertiary cultures on Snapwell (Corning) 0.4μ clear polyester membrane inserts 1.2 cm^2 coated with collagen IV (Sigma). Cells were seeded at approximately 10^5/cm^2 in 0.5 ml 1:1 DMEM (Cambrex, UK) BEGM containing bovine pituitary extract (50 μg/ml), hydrocortisone (0.5 μg/ml), human epidermal growth factor (0.5 ng/ml), epinephrine (0.5 μg/ml), transferrin (10 μg/ml), insulin (5 μg/ml), retinoic acid (50 nM), and gentamicin (50 μg/ml) (Danahay medium; Danahay et al. 2002). Snapwell inserts were mounted in 6-well plates with 3 ml Danahay medium in the wells, and grown at 37° C. in 5% CO2 in a humidified incubator. Medium was changed every 1 to 3 days. An apical air-liquid interface (ALI) was established as the cells achieved confluence (3 to 6 days) by removal of medium from the centre of the insert. Confluent differentiated bronchial epithelial cells were used for electrophysiology studies at between 15 and 29 days after establishing ALI.
Differentiated HBE cells grown to confluence at an air-liquid interface for 15 to 29 days were used to study substances for ability to achieve long duration down regulation of the epithelial amiloride-sensitive sodium channel (ENaC).
Step 1: Treatment with substance. For each group of cells treated with a substance, 30 μl of 100 times final concentration of substance was added to the 3 ml basolateral culture medium, mixed and 150 μl of the resultant basolateral fluid was transferred to the apical surface for 5 min. For non-treatment control groups of basolateral fluid with no added substance was transferred to the apical surface. After 5 min. equilibration the excess apical fluid was then transferred back to the basolateral side of the culture well.
Step 2: Variable period of incubation with the substance. Dependent on the individual experiment the cells were returned to the 37° C. incubator for periods of 0 min. to 120 min.
Step 3: Period of substance washout with fresh culture medium. For experiments to study the duration of a substance response the HBE cells on Snapwell inserts were washed with fresh culture medium (no added substance) at 37° C. and placed in fresh 6-well plates containing 3 ml fresh culture medium (no added substance) on the basolateral side. […] Step 3 was omitted in studies where the duration of the substance response was not investigated.
Step 4: Wash with Krebs-Ringer buffer and assembly in Ussing chambers. The Snapwell insert cultures of HBE cells were removed from the 6-well plates and washed with excess Krebs-Ringer buffer (120 mM-NaCl, 25 mM-NaHCO3, 3.3 mM-KH2PO4, 0.8 mM-K2HPO4, 1.2 mM-CaCl2, 1.2 mM-MgCl2, 10 mM-glucose) pH7.4 at 37° C. The inserts were then mounted in Ussing chambers (Snapwell diffusion chambers, Costar UK Ltd.). Each side of the chamber was filled with 5 ml Krebs-Ringer buffer and gassed continuously with 95% O2/5% CO2 at 37° C. […]

The mark [1] stands for this setting: down regulation of ENaC activity.

Read-outs that look alike come from different tables or passages of the source.

For the compound `N=C(N)c1ccc2cc(OC(=O)c3ccc(N=C(N)N)cc3)ccc2c1` [6-amidino-2-napthyl 4-guanidinobenzoate], the “average baseline Isc slope in initial recording period” value was “+0.93 μAmp/min” (1 μM 60 min, 3 h 00 min washout, FIG. 7D) and “+0.60 μAmp/min” (1 μM 60 min, 4 h 30 min washout, FIG. 7E). Under “1 μM 60 min, then 4 h 30 min culture medium washout”, the “amiloride ΔIsc compared to control” value is listed as “not significantly different”. The “slope of rising baseline short circuit current relative to untreated controls” value (3 h 00 min in fresh culture, first 15 minutes of recording, FIGS. 7D and 7A) is on record as “over 20 times”. In addition, the “time to half maximal inhibition (onset)” value under setting [1] is given as not above 5 min. Also, the “time to maximum down regulation (onset)” value under setting [1] was not above 30 min.
